# Read-outs that look alike come from different tables or passages of the source.
# Assays:
# [1] = test system: chronic electric painful influence; conditions: for daily 15% ethanol consumption: M ± m
# Protocol: In the test and control groups of animals, a determination was given during 7 days to an individual daily consumption of 15% ethanol in the conditions of free choice between said 15% ethanol and water. Thereafter the young rats were subjected to quintuple electric painful influence, daily for 2 weeks, on the paws for 5 minutes, duration 1 sec.; the grown-up animals--tenfold influence for 10 minutes, duration 1 sec. […] The control group received a corresponding volume of water.
# [2] = test system: chronic emotional stress; conditions: 1 mg/kg tongue root; for 15% ethanol daily consumed: M ± m
# Description: It is commonly known that manipulations with animals (cell sampling, administration of substances, water included) are a unique stress factor and cause a prolonged state of excitement, disturbance, aggressiveness.
# [3] = test system: Corazol convulsions; assay: testings with Corazolin (Corazol), mice; assay type: in vivo; conditions: for Corazol latent period / Corazol life-time: M ± m
# [4] = test system: Corazol twitches; assay: comparative interaction test with Corazol, rats; assay type: in vivo; conditions: M ± m
# [5] = for Addition: after taking
# Description: A test permits evaluating the rate of counting-computing operations per unit time (in each and every minute), duration of execution of the task (time spent for adding 184 pairs of numbers), the number of mistakes, the speed of attention switching and the degree of weariness.
# [6] = Protocol: The examination of attention was performed by using Schulte test which provides for a square chart produced before a patient (tested) that is divided into 49 squares containing confusedly arranged red and black numbers (24 and 25, respectively). The numbers are sought in the chart in strict order, say, red ones in increasing order and black ones in decreasing order, and along with this, the time is fixed for execution of the entire assignment, the time of search of each and every figure and the number of mistakes. The test makes it possible to assess attention and reveal the persons having enhanced emotional responses.
# To study the state of short-lived memory, use was made of a test based on reproduction of 10 two-digit numbers shown on the screen for 20 sec. […] Sensomotor reactions were evaluated with the aid of a visual-motor reaction (differentiation of optical signals from 20 applications).
# [7] = for Number of errors per 500 symbols: M ± m
# Protocol: Examination of the mental capacity dynamics of the tested was performed in two stages.
# [8] = assay type: in vivo; conditions: in vivo
# [9] = test system: electric painful irritation; conditions: 60 min before experiment
# [10] = test system: hexenal effects; conditions: M ± m
# [11] = test system: Corazol twitch paroxysm; conditions: for Threshold doses Corazol 1% solution, death of animal / Threshold doses Corazol 1% solution, start of twitch: M ± m
# [12] = test system: electrical-shock-caused paroxysms
# Remark: listed apart in the source
# [13] = intragastric, 20 min before Corazol, in words
# [14] = 30 min after taking the claimed preparation
# [15] = after taking the preparation, M ± m
# [16] = week's fourth day, after classes
# [17] = week's fourth day, before classes, after dose
# [18] = week's second day, after classes
# [19] = week's second day, before classes, after dose
# [20] = 40 mg/kg week-long introduction
# [21] = 200 mg/kg single administration
# [22] = after the exams, after taking, M ± m
# [23] = lab conditions, after taking, after testing, M ± m
substance,measurement,setting,value
aminoacetic acid [claimed preparation],daily 15% ethanol consumption,"[1]; adult animals, 2nd week, 1 to 2 mg/kg tongue root",3.4 ± 0.13 mL
same,daily 15% ethanol consumption,"[1]; adult animals, 4th week (after cancellation)",2.3 ± 0.3 mL
same,daily 15% ethanol consumption,"[1]; adult animals, 3d week, 1 to 2 mg/kg tongue root",2.5 ± 0.15 mL
same,daily 15% ethanol consumption,"[1]; adult animals, Test, 1st week (before stress and administration)",1.8 ± 0.08 mL
same,aggressiveness and exciteability,"[1]; during the entire experiment, vs control groups",considerable reduction of aggressiveness and exciteability
same,alcohol motivation,"[1]; rat, in vivo",diminishes the alcohol motivation of the animals
same,daily 15% ethanol consumption,"[1]; young rats, 2nd week, 1 to 2 mg/kg tongue root",4.4 ± 0.3 mL
same,daily 15% ethanol consumption,"[1]; young rats, 4th week (after cancellation)",1.6 ± 0.18 mL
same,daily 15% ethanol consumption,"[1]; young rats, 3d week, 1 to 2 mg/kg tongue root",2.0 ± 0.2 mL
same,daily 15% ethanol consumption,"[1]; young rats, Test, 1st week (before stress and administration)",2.7 ± 0.2 mL
same,alcohol motivation,[2],considerably reduces it
same,15% ethanol daily consumed,[2]; 1 week,3.6 ± 0.3 mL
same,15% ethanol daily consumed,[2]; 2 week,4.0 ± 0.3 mL
same,15% ethanol daily consumed,[2]; 3 week,2.3 ± 0.3 mL
same,15% ethanol daily consumed,[2]; 4 week,2.7 ± 0.2 mL
same,Corazol tonico-extensor phase,[3]; 2 mg/kg intragastric,100 min
same,Corazol latent period,[3]; 2 mg/kg intragastric,39.0 ± 0.6 s
same,Corazol life-time,[3]; 2 mg/kg intragastric,2.5 ± 0.7 min
same,Corazol tonico-extensor phase,[3]; 20 mg/kg intragastric,80 min
same,Corazol latent period,[3]; 20 mg/kg intragastric,41.0 ± 0.3 s
same,Corazol life-time,[3]; 20 mg/kg intragastric,2.8 ± 0.8 min
same,Corazol tonico-extensor phase,[3]; 40 mg/kg intragastric,70 min
same,Corazol latent period,[3]; 40 mg/kg intragastric,49.0 ± 0.7 s
same,Corazol life-time,[3]; 40 mg/kg intragastric,2.4 ± 0.7 min
same,Corazol tonico-extensor phase,[3]; 80 mg/kg intragastric,70 min
same,Corazol latent period,[3]; 80 mg/kg intragastric,45.0 ± 0.9 s
same,Corazol life-time,[3]; 80 mg/kg intragastric,3.1 ± 0.9 min
same,Corazol tonico-extensor phase,[3]; 200 mg/kg intragastric,70 min
same,Corazol latent period,[3]; 200 mg/kg intragastric,42.5 ± 0.7 s
same,Corazol life-time,[3]; 200 mg/kg intragastric,2.4 ± 0.5 min
same,latent period of Corazol convulsions,[3]; [13],increased latent period of Corazol convulsions
same,tonico-extensor component of a twitch paroxysm,[3]; [13],some depression of the tonico-extensor component of a twitch paroxysm
same,"Corazol twitches, latent period",[4]; 20 mg/kg,41.0 ± 0.3 min
same,"Corazol twitches, latent period",[4]; 80 mg/kg,45.0 ± 0.9 min
same,"Corazol twitches, latent period",[4]; 200 mg/kg,42.5 ± 0.7 min
same,cases with reduced time for adding up numbers,[5]; 30 min after single dose,79.5%
same,number of errors in counting,[5]; 30 min after single dose,diminishes twice
same,reduction of time for adding up numbers,[5]; 30 min after single dose,1.5 to 2 min
same,Number of mistakes,[5]; [14],1
same,Those making mistakes,[5]; [14],40%
same,Speed of addition,"[5]; 30 min after taking the claimed preparation, M ± m",52.0 ± 1.9 pair/min
same,Addition,"[5]; alcoholic abstinence syndrome (2nd day), M ± m",32.0 ± 1.6 pair/min
same,Addition,"[5]; remission period, M ± m",51.0 ± 1.8 pair/min
same,cases with increased volume of short-lived memory,[6]; 2 mg/kg one time,58.9%
same,cases with subjective and objective improvement of general state,[6]; 2 mg/kg one time,87.2%
same,students with reduction of latent period of visual-motor reaction and number of differentiation disruptions,[6]; 2 mg/kg one time,56.4%
same,tested whose short-lived memory did not worsen and remained on the initial level,[6]; 2 mg/kg one time,25.7%
same,increase of volume of short-lived memory,"[6]; 2 mg/kg one time, average",25%
same,attention,"[6]; 2 mg/kg one time, in words",reducing the attention switching time and the number of mistakes made
same,Attention switching number of errors,[6]; [15],3.20 ± 0.39
same,Attention switching time,[6]; [15],95.39 ± 6.11 s
same,Shortlived memory,[6]; [15],46.92 ± 2.58 nom. units
same,Visual-motor reaction differentiation disruption,[6]; [15],0.46 ± 0.13 nominal units
same,Visual-motor reaction latent period,[6]; [15],0.51 ± 0.01 min
same,Work without mistakes,[7]; [16],14.3%
same,Number of errors per 500 symbols,[7]; [16],8.4 ± 1.2
same,Work without mistakes,[7]; [17],28.6%
same,Number of errors per 500 symbols,[7]; [17],7.6 ± 1.9
same,Work without mistakes,[7]; [18],25.0%
same,Number of errors per 500 symbols,[7]; [18],7.8 ± 1.8
same,Work without mistakes,[7]; [19],16.5%
same,Number of errors per 500 symbols,[7]; [19],6.5 ± 1.6
same,sedative and synchronizing effect on EEG,[8],displaying at the same time a sedative and synchronizing effect on EEG
same,emotional reaction (squeak),[9],did not exert influence on an emotional reaction
same,increase of aggression reaction threshold,[9],5±0.8 v
same,number of fights,[9],reduced the number of fights
same,strengthening of motor component (jumps),[9],1-1.5 points
same,hexenal duration of sleep,[10]; 2 mg/kg,36.0 ± 1.8 min
same,hexenal latent period,[10]; 2 mg/kg,4.5 ± 0.3 min
same,hexenal duration of sleep,[10]; 40 mg/kg,32.0 ± 1.9 min
same,hexenal latent period,[10]; 40 mg/kg,4.5 ± 0.6 min
same,hexenal duration of sleep,[10]; 200 mg/kg,28.0 ± 1.9 min
same,hexenal latent period,[10]; 200 mg/kg,3.8 ± 0.7 min
same,"Threshold doses Corazol 1% solution, death of animal",[11]; 2 mg/kg single administration,0.119 ± 0.006 mL
same,"Threshold doses Corazol 1% solution, start of twitch",[11]; 2 mg/kg single administration,0.095 ± 0.004 mL
same,"Threshold doses Corazol 1% solution, death of animal",[11]; 2 mg/kg week-long introduction,0.119 ± 0.004 mL
same,"Threshold doses Corazol 1% solution, start of twitch",[11]; 2 mg/kg week-long introduction,0.090 ± 0.007 mL
same,"Threshold doses Corazol 1% solution, death of animal",[11]; 40 mg/kg single administration,0.130 ± 0.006 mL
same,"Threshold doses Corazol 1% solution, start of twitch",[11]; 40 mg/kg single administration,0.091 ± 0.005 mL
same,"Threshold doses Corazol 1% solution, death of animal",[11]; [20],0.163 ± 0.005 mL
same,"Threshold doses Corazol 1% solution, start of twitch",[11]; [20],0.095 ± 0.005 mL
same,"Threshold doses Corazol 1% solution, death of animal",[11]; 80 mg/kg single administration,0.135 ± 0.007 mL
same,"Threshold doses Corazol 1% solution, start of twitch",[11]; 80 mg/kg single administration,0.095 ± 0.004 mL
same,"Threshold doses Corazol 1% solution, death of animal",[11]; [21],0.130 ± 0.08 mL
same,"Threshold doses Corazol 1% solution, start of twitch",[11]; [21],0.096 ± 0.007 mL
same,Corazol threshold dosage,[11]; in words,somewhat increasing a Corazol threshold dosage
same,Maximal electric shock death of animal,[12]; 2 mg/kg single administration,70%
same,Maximal electric shock tonico-extensor phase,[12]; 2 mg/kg single administration,100%
same,Maximal electric shock death of animal,[12]; 2 mg/kg week-long introduction,60%
same,Maximal electric shock tonico-extensor phase,[12]; 2 mg/kg week-long introduction,100%
same,Maximal electric shock death of animal,[12]; 40 mg/kg single administration,40%
same,Maximal electric shock tonico-extensor phase,[12]; 40 mg/kg single administration,100%
same,Maximal electric shock death of animal,[12]; [20],40%
same,Maximal electric shock tonico-extensor phase,[12]; [20],100%
same,Maximal electric shock death of animal,[12]; 80 mg/kg single administration,40%
same,Maximal electric shock tonico-extensor phase,[12]; 80 mg/kg single administration,100%
same,Maximal electric shock death of animal,[12]; [21],70%
same,Maximal electric shock tonico-extensor phase,[12]; [21],100%
same,activity towards electrical-shock-caused paroxysms,[12]; in words,inactive towards electrical-shock- caused paroxysms
same,"Arterial pressure, diastolic",[22],65.7 ± 1.5 mm Hg
same,"Arterial pressure, systolic",[22],112.8 ± 2.8 mm Hg
same,Pulse frequency,[22],72.8 ± 2.3 spec./min.
same,change in pulse rate and arterial pressure,"heightened nerve-psychic agitation, in words",eliminates a change in a pulse rate and arterial pressure
same,"Arterial pressure, diastolic",in vivo,69.3 ± 1.3 mm Hg
same,"Arterial pressure, systolic",in vivo,110.2 ± 1.7 mm Hg
same,Pulse frequency,in vivo,76.8 ± 1.4 spec./min.
same,"Arterial pressure, diastolic",[23],69.2 ± 1.1 mm Hg
same,"Arterial pressure, systolic",[23],107.7 ± 1.5 mm Hg
same,Pulse frequency,[23],78.1 ± 1.4 spec./min.

# — patent US5643954A, “Method of preventing and alleviating stress in a healthy mammal in need thereof” (priority 1993, dated 1997)
